Experimental data from patent EP0241395A2, “Sweeteners derived from n-phenylguanidinoacetic and n-phenylethananamidinacetic acids, and compositions containing such sweeteners” (UNIVERSITE CLAUDE BERNARD - LYON 1, priority 1986, dated 1987).

System: groupe de huit goûteurs expérimentés
Test: Sweetening power judged by a panel of eight experienced tasters against a sucrose reference solution
Assay type: in vivo
Conditions: weight basis; for Pouvoir édulcorant: Table II, relative to a 2 % sucrose solution; for pouvoir édulcorant, sur une base pondérale: approximate
Excerpt: Le pouvoir édulcorant des composés préparés dans les exemples suivants a été évalué par un groupe de huit goûteurs expérimentés. Pour cela, les composés, en solution aqueuse à des concentrations variables, sont comparés, sur le plan gustatif, à une solution témoin de saccharose à 2 % et dans certains cas à 5 % et 10 %, c'est-à-dire à des concentrations correspondant à celles utilisées lors d'un usage courant. Le pouvoir sucrant des édulcorants de synthèse varie en effet suivant la concentration de la solution de saccharose utilisée comme référence. Le pouvoir édulcorant du composé testé par rapport au saccharose correspond alors au rapport pondéral qui existe entre le composé et le saccharose à égale intensité édulcorante, c'est-à-dire quand les saveurs sucrées de la solution du composé testé et de la solution témoin de saccharose sont considérées, par une majorité de goûteurs, avoir la même intensité édulcorante.

[1] = by comparison with a 2 % sucrose solution

| SMILES | Pouvoir édulcorant | pouvoir édulcorant, sur une base pondérale [1] | pouvoir édulcorant, sur une base pondérale (by comparison with a 5 % sucrose solution) | pouvoir édulcorant, sur une base pondérale (by comparison with a 10 % sucrose solution) |
| --- | --- | --- | --- | --- |
| O=C(O)CN=C(NCC1CCCCC1)Nc1ccc(C(=O)O)cc1 [Exemple 61, acide N-[N-cyclohexylméthylamino(4-carboxyphénylimino)méthyl]-2-aminoéthanoïque] | 50 | ~50 fois celui du saccharose |  |  |
| C[C@H](NC(=Nc1cc(Cl)c(Cl)c(Cl)c1)NCC(=O)O)c1ccccc1 [Exemple 28, acide N-[N-(S)-α-méthylbenzylamino (3,4,5-trichlorophénylimino)méthyl]-2-aminoéthanoïque] | 35000 | ~35 000 fois celui du saccharose |  |  |
| N#Cc1ccc(N=C(NCC(=O)O)NCc2ccccc2)cc1 [Exemple 52, acide N-[N-benzylamino(4-cyanophénylimino)méthyl]-2-aminoéthanoïque] | 30000 | ~30 000 fois celui du saccharose | ~27 000 fois celui du saccharose | ~22 000 fois celui du saccharose |
| CSc1ccc(N=C(NCC(=O)O)N[C@@H](C)c2ccccc2)cc1 [Exemple 21, acide N-[N-(S)-a-méthylbenzylamino (4-méthylmercaptophénylimino)méthyl)-2-aminoéthanoïque] | 1200 | ~1200 times sucrose |  |  |
| Cc1cc(N=C(NCC(=O)O)N[C@@H](C)c2ccccc2)ccc1C#N [Exemple 22, acide N-[N-(S)-a-méthylbenzylamino (4-cyano-3-méthylphénylimino)méthyl]-2-aminoéthanoïque] | 50000 | ~50 000 fois celui du saccharose |  |  |
| C[C@H](N=C(NCC(=O)O)Nc1ccc(F)cc1)c1ccccc1 [Exemple 17, acide N-[N-(S)-α-méthylbenzylamine (4-fluorophénylimino)méthyl]-2-aminoéthanoïque] | 4000 | ~4 000 fois celui du saccharose |  |  |
| O=C(O)CNC(=Nc1ccccc1)Nc1ccccc1 [Exemple 40, acide N-[N-phénylamino(phénylimino)méthyl]-2-aminoéthanoique] | 500 | ~500 fois celui du saccharose |  |  |
| CCNC(=Nc1ccc(C#N)cc1)NCC(=O)O [Exemple 35, acide N-[N-éthylamino(4-cyanophénylimino)méthyl]-2-aminoéthanoïque] | 350 | ~350 fois celui du saccharose |  |  |
| O=C(O)CNC(=Nc1cc(Cl)cc(Cl)c1)NCc1ccccc1 [Exemple 51, acide N-[N-benzylamino(3,5-dichlorophénylimino)méthyl]-2-aminoéthanoïque] | 80000 | ~80 000 fois celui du saccharose |  |  |
| Cc1cc(C)cc(N=C(NCC(=O)O)N[C@@H](C)c2ccccc2)c1 [Exemple 25, acide N-[N-(S)-α-méthylbenzylamino (3,5-diméthylphénylimino)méthyl]-2-aminoéthanoïque] | 30000 | ~30 000 fois celui du saccharose |  |  |
| O=C(O)CNC(=C[N+](=O)[O-])Nc1cc(Cl)cc(Cl)c1 [Exemple 29, acide N-[2-nitro(3,5-dichlorophénylamino)éthényl]-2-aminoéthanoïque] | 400 | ~400 fois celui du saccharose |  |  |
| C[C@H](NC(=Nc1ccc([N+](=O)[O-])cc1)NCC(=O)O)c1ccccc1 [Exemple 18, acide N-[N-(S)-a-méthylbenzylamino (4-nitrophénylimino)méthyl]-2-aminoéthanoïque] | 7000 | ~7 000 fois celui du saccharose |  |  |
| C[C@H](NC(=Nc1ccccc1)NCC(=O)O)c1ccccc1 [Exemple 1, acide N-[N-(S)-α-méthylbenzylamine (phénylimino)méthyl]-2-aminoéthanoïque] | 5000 | ~5 000 fois celui du saccharose |  |  |
